Assay results: the NIST ThermoML archive (doi:10.1016/j.jct.2012.06.031)
Numbers after ± are expanded uncertainties.

Assay: refractive index (Na D-line) (dimensionless); xn = mol fraction of the nth substance listed
Conditions: 101 kPa, Liquid, Standard Abbe refractometry

c1ccncc1 [pyridine] + CCCO
refractive index
Conditions	x1 = 0.1001	x1 = 0.1998	x1 = 0.2999	x1 = 0.3998	x1 = 0.5	x1 = 0.5999	x1 = 0.7	x1 = 0.8	x1 = 0.8998	x1 = 1
288.15 K	1.40196 ± 0.00031	1.41533 ± 0.00031	1.42836 ± 0.00031	1.44094 ± 0.00031	1.45341 ± 0.00031	1.46554 ± 0.00031	1.47748 ± 0.00031	1.48907 ± 0.00031	1.50064 ± 0.00031	1.51184 ± 0.00031
293.15 K	1.39979 ± 0.00031	1.41307 ± 0.00031	1.42603 ± 0.00031	1.43854 ± 0.00031	1.45095 ± 0.00031	1.46301 ± 0.00031	1.47487 ± 0.00031	1.4864 ± 0.00031	1.49788 ± 0.00032	1.509 ± 0.00031
298.15 K	1.39757 ± 0.00031	1.41079 ± 0.00031	1.42367 ± 0.00031	1.43616 ± 0.00031	1.44848 ± 0.00031	1.46047 ± 0.00031	1.47228 ± 0.00031	1.48375 ± 0.00031	1.49514 ± 0.00031	1.50616 ± 0.00031
303.15 K	1.39535 ± 0.00031	1.40849 ± 0.00031	1.42136 ± 0.00031	1.43375 ± 0.00031	1.44601 ± 0.00031	1.45795 ± 0.00031	1.46968 ± 0.00031	1.48107 ± 0.00031	1.49238 ± 0.00031	1.50331 ± 0.00031
308.15 K	1.3931 ± 0.00031	1.40618 ± 0.00031	1.41898 ± 0.00031	1.43132 ± 0.00031	1.44353 ± 0.00031	1.45541 ± 0.00031	1.46708 ± 0.00031	1.47839 ± 0.00031	1.48965 ± 0.00032	1.50048 ± 0.00031
313.15 K	1.39068 ± 0.00031	1.40381 ± 0.00031	1.41659 ± 0.00031	1.42891 ± 0.00031	1.44102 ± 0.00031	1.45287 ± 0.00031	1.46445 ± 0.00031	1.47573 ± 0.00031	1.48683 ± 0.00031	1.49769 ± 0.00031
318.15 K	1.3884 ± 0.00031	1.40151 ± 0.00031	1.41425 ± 0.00031	1.42648 ± 0.00031	1.43857 ± 0.00031	1.45038 ± 0.00031	1.46187 ± 0.00031	1.47309 ± 0.00031	1.48411 ± 0.00031	1.49493 ± 0.00031
323.15 K	1.38622 ± 0.00032	1.39909 ± 0.00031	1.41179 ± 0.00031	1.42409 ± 0.00031	1.43616 ± 0.00031	1.44788 ± 0.00031	1.45942 ± 0.00031	1.47055 ± 0.00031	1.48155 ± 0.00031	1.49219 ± 0.00031

c1ccncc1 [pyridine] + OCC(O)CO
refractive index
Conditions	x1 = 0.1	x1 = 0.2001	x1 = 0.3001	x1 = 0.4	x1 = 0.4998	x1 = 0.6001	x1 = 0.6999	x1 = 0.8001	x1 = 0.8999	x1 = 1
288.15 K	1.48103 ± 0.00032	1.48616 ± 0.00032	1.49108 ± 0.00032	1.49581 ± 0.00032	1.49973 ± 0.00032	1.50321 ± 0.00032	1.50634 ± 0.00032	1.50874 ± 0.00032	1.51057 ± 0.00031	1.51184 ± 0.00031
293.15 K	1.47967 ± 0.00032	1.48469 ± 0.00032	1.48946 ± 0.00032	1.49406 ± 0.00032	1.49786 ± 0.00032	1.50115 ± 0.00032	1.50412 ± 0.00032	1.50638 ± 0.00032	1.50796 ± 0.00031	1.509 ± 0.00031
298.15 K	1.47829 ± 0.00032	1.48318 ± 0.00032	1.48784 ± 0.00032	1.49227 ± 0.00032	1.49597 ± 0.00032	1.49954 ± 0.00032	1.50189 ± 0.00032	1.504 ± 0.00032	1.50535 ± 0.00031	1.50616 ± 0.00031
303.15 K	1.4769 ± 0.00032	1.48167 ± 0.00032	1.48619 ± 0.00032	1.49055 ± 0.00032	1.49411 ± 0.00032	1.49711 ± 0.00032	1.49967 ± 0.00032	1.50162 ± 0.00032	1.50275 ± 0.00031	1.50331 ± 0.00031
308.15 K	1.47553 ± 0.00032	1.48015 ± 0.00032	1.48454 ± 0.00032	1.48882 ± 0.00032	1.49222 ± 0.00032	1.49515 ± 0.00032	1.49743 ± 0.00032	1.49927 ± 0.00032	1.50017 ± 0.00031	1.50048 ± 0.00031
313.15 K	1.47412 ± 0.00032	1.47863 ± 0.00032	1.48286 ± 0.00032	1.48703 ± 0.00032	1.49024 ± 0.00032	1.49307 ± 0.00032	1.49542 ± 0.00032	1.49699 ± 0.00032	1.49777 ± 0.00031	1.49769 ± 0.00031
318.15 K	1.47272 ± 0.00032	1.47699 ± 0.00032	1.4812 ± 0.00032	1.48522 ± 0.00032	1.48844 ± 0.00032	1.49119 ± 0.00032	1.49319 ± 0.00032	1.4947 ± 0.00032	1.49512 ± 0.00031	1.49493 ± 0.00031
323.15 K	1.47138 ± 0.00032	1.47548 ± 0.00032	1.47953 ± 0.00032	1.48348 ± 0.00032	1.48658 ± 0.00032	1.48919 ± 0.00032	1.49101 ± 0.00032	1.4924 ± 0.00032	1.4926 ± 0.00031	1.49219 ± 0.00031

OCCCO [propan-1,3-diol] + c1ccncc1
refractive index
Conditions	x2 = 0	x2 = 0.0999	x2 = 0.2	x2 = 0.3	x2 = 0.4001	x2 = 0.5	x2 = 0.5999	x2 = 0.7	x2 = 0.7998	x2 = 0.8998
288.15 K	1.44089 ± 0.00051	1.44922 ± 0.00048	1.45763 ± 0.00045	1.46592 ± 0.00043	1.47372 ± 0.0004	1.4809 ± 0.00038	1.48773 ± 0.00036	1.49409 ± 0.00034	1.49986 ± 0.00033	1.50582 ± 0.00032
293.15 K	1.43947 ± 0.00051	1.44774 ± 0.00048	1.45599 ± 0.00045	1.46414 ± 0.00043	1.47185 ± 0.0004	1.47889 ± 0.00038	1.48556 ± 0.00036	1.4918 ± 0.00034	1.49743 ± 0.00033	1.50319 ± 0.00032
298.15 K	1.43805 ± 0.00051	1.44619 ± 0.00048	1.45436 ± 0.00045	1.46235 ± 0.00043	1.46995 ± 0.0004	1.47685 ± 0.00038	1.4834 ± 0.00036	1.4895 ± 0.00034	1.495 ± 0.00033	1.50057 ± 0.00032
303.15 K	1.43665 ± 0.00051	1.44473 ± 0.00048	1.45279 ± 0.00045	1.46061 ± 0.00043	1.46805 ± 0.0004	1.47482 ± 0.00038	1.48124 ± 0.00036	1.4872 ± 0.00034	1.49257 ± 0.00033	1.49795 ± 0.00032
308.15 K	1.43526 ± 0.00051	1.44328 ± 0.00048	1.45118 ± 0.00045	1.45892 ± 0.00043	1.46621 ± 0.0004	1.4728 ± 0.00038	1.47907 ± 0.00036	1.48491 ± 0.00034	1.49016 ± 0.00033	1.49536 ± 0.00032
313.15 K	1.43387 ± 0.00051	1.44171 ± 0.00048	1.44953 ± 0.00045	1.45718 ± 0.00043	1.46432 ± 0.0004	1.47092 ± 0.00038	1.47707 ± 0.00036	1.48267 ± 0.00034	1.48778 ± 0.00033	1.49276 ± 0.00032
318.15 K	1.43244 ± 0.00051	1.4402 ± 0.00048	1.44788 ± 0.00045	1.45542 ± 0.00043	1.4624 ± 0.0004	1.4689 ± 0.00038	1.47491 ± 0.00036	1.48045 ± 0.00034	1.4855 ± 0.00033	1.49023 ± 0.00032
323.15 K	1.43099 ± 0.00051	1.43869 ± 0.00048	1.44628 ± 0.00045	1.45378 ± 0.00043	1.46051 ± 0.0004	1.467 ± 0.00038	1.47312 ± 0.00036	1.47837 ± 0.00034	1.4833 ± 0.00033	1.48788 ± 0.00032

CC(O)CO (stereo not given) [1,2-propanediol] + c1ccncc1
refractive index
Conditions	x2 = 0	x2 = 0.1	x2 = 0.2	x2 = 0.2999	x2 = 0.4	x2 = 0.4999	x2 = 0.6	x2 = 0.7001	x2 = 0.8	x2 = 0.9
288.15 K	1.43411 ± 0.00033	1.44356 ± 0.00032	1.4522 ± 0.00032	1.46041 ± 0.00032	1.46838 ± 0.00032	1.47609 ± 0.00032	1.48375 ± 0.00032	1.49129 ± 0.00032	1.49866 ± 0.00032	1.50554 ± 0.00031
293.15 K	1.43247 ± 0.00033	1.4418 ± 0.00033	1.4503 ± 0.00032	1.4584 ± 0.00032	1.46629 ± 0.00032	1.47383 ± 0.00032	1.4814 ± 0.00032	1.48884 ± 0.00032	1.49609 ± 0.00032	1.50288 ± 0.00032
298.15 K	1.43081 ± 0.00033	1.43993 ± 0.00033	1.44839 ± 0.00032	1.4564 ± 0.00032	1.46417 ± 0.00032	1.47163 ± 0.00032	1.47909 ± 0.00032	1.4864 ± 0.00032	1.49345 ± 0.00032	1.49993 ± 0.00032
303.15 K	1.42915 ± 0.00033	1.43816 ± 0.00032	1.4465 ± 0.00032	1.45438 ± 0.00032	1.46204 ± 0.00032	1.4694 ± 0.00032	1.47676 ± 0.00032	1.48397 ± 0.00032	1.49093 ± 0.00032	1.49727 ± 0.00032
308.15 K	1.42751 ± 0.00033	1.43643 ± 0.00032	1.44465 ± 0.00032	1.45244 ± 0.00032	1.46 ± 0.00032	1.46728 ± 0.00032	1.47448 ± 0.00032	1.48152 ± 0.00032	1.48841 ± 0.00032	1.49461 ± 0.00032
313.15 K	1.42581 ± 0.00033	1.43463 ± 0.00032	1.44276 ± 0.00032	1.45051 ± 0.00032	1.45802 ± 0.00032	1.46517 ± 0.00032	1.47224 ± 0.00032	1.4791 ± 0.00032	1.48589 ± 0.00032	1.49195 ± 0.00032
318.15 K	1.42407 ± 0.00033	1.43286 ± 0.00032	1.44082 ± 0.00032	1.44855 ± 0.00032	1.45597 ± 0.00032	1.46296 ± 0.00032	1.46991 ± 0.00032	1.47665 ± 0.00032	1.48321 ± 0.00032	1.4894 ± 0.00031
323.15 K	1.4223 ± 0.00033	1.43109 ± 0.00033	1.439 ± 0.00032	1.44676 ± 0.00032	1.45397 ± 0.00032	1.46088 ± 0.00032	1.46777 ± 0.00032	1.47441 ± 0.00032	1.48086 ± 0.00032	1.4869 ± 0.00032
